Assays:
S. aureus [1] = type: cell-based, Staphylococcus aureus; settings: for agr expression: dose-dependent, SAL at 25 or 50 μg/ml, DICL, 2.5 or 5 μg/ml
[2] = test system: SA strains SH1000 (MSSA), USA300 (MRSA); experiment: Gene expression quantified by realtime PCR, statements covering both SA strains; type: cell-based, Staphylococcus aureus
[3] = test system: SA strains SH1000 (MSSA), USA300 (MRSA); experiment: Hemolysin phenotype compared to gene expression; settings: in parallel to hla; 25 μg/ml
SH1000 (MSSA) = experiment: Gene expression quantified by realtime PCR, strain SH1000; settings: early log phase (2-4 hr); 25 μg/ml
USA300 (MRSA) = experiment: Gene expression quantified by realtime PCR, strain USA300; settings: early log phase (2-4 hr); 25 μg/ml
[4] = test system: SA strains SH1000 (MSSA), USA300 (MRSA); experiment: Antibiotic resistance phenotype (antibiotic MIC) in presence of salicylates; settings: vs. both strains
[5] = test system: S. aureus: ISP479C, Newman and COL; experiment: In vitro MICs of aspirin and SAL; type: cell-based, Staphylococcus aureus; settings: 10-50 ug/ml up to 8 mg/ml
[6] = test system: S. aureus (9 individual strains); experiment: S. aureus-to-fibrinogen or -fibronectin binding, solid-phase assays; type: cell-based, Staphylococcus aureus; settings: pre-exposed to SAL 30 and 50 μg/ml; composite of 9 strains; dose-dependent
Text: Induction of endovascular infections is linked to the microbial binding to relevant vascular damage sites.
Fibrinogen and fibronectin play key roles as ligands for S. aureus binding to cellular docking sites (e.g., platelets and endothelial cells), as well as bridging molecules that facilitate these same interactions in which additional factors are operative (e.g., gC1qR-platelet or endothelial cell binding). Peerschke and Ghebrehiwet, Immunobiology.
Mean reduction (±SD) vs. control (100%). Data are composite results of laboratory S. aureus RN6390, COL, Newman, and ISP479C, and clinical MRSA 67-0, 6850, Duke 28, Duke 153, and Duke 237. […] Key: A P<0.005; B <P 0.001.

S. aureus [7] = experiment: Solid-phase plate assay, adherence to fibrin and platelet-fibrin matrices; type: cell-based, Staphylococcus aureus; settings: organism pre-exposure to SAL in vitro
Procedure: A solid-phase plate assay was used to quantify the impact of SAL on the ability of S. aureus to adhere to fibrin and platelet-fibrin matrices. Platelet-rich (PRP) or platelet-free plasma (PFP) from control animals or those given a single-dose of aspirin iv (8 mg/kg) 5 hr prior to plasma isolation, were used to generate such matrices. […] Kupferwasser et al. Circulation. 1999 99:2791-7. These strains bound equally to control matrices and those constructed from aspirin-treated animals (data not shown).

S. aureus α-toxin = type: cell-based, Staphylococcus aureus
S. aureus [8] = experiment: Protease activity in S. aureus supernatants; type: cell-based, Staphylococcus aureus; settings: in the presence of SAL
[9] = test system: S. aureus FDA 486 and rsbU/V/W mutants; type: cell-based, Staphylococcus aureus
[10] = test system: S. aureus strains MSSA (6850), MRSA (COL), RN6390, SH1000, sigB operon deleted strains; experiment: Rabbit IE model with a range of S. aureus strains; type: in vivo
[11] = test system: S. aureus: ISP479C, Newman and COL; settings: physiologically relevant drug concentrations; cited from earlier work
S. aureus [12] = experiment: sarA-repressible genes, lipase and protein A; settings: in the presence of SAL
S. aureus IE = experiment: Rabbit model of S. aureus IE, aspirin, vancomycin or both for 2 d; type: in vivo
Procedure: In the rabbit model of S. aureus IE, two intravenous (iv) aspirin dose regimens designed to encompass those used in a previous aspirin-alone efficacy study (4 or 8 mg/kg/d) were employed. Animals received aspirin alone, vancomycin alone at a low dose regimen (7.5 mg/kg bid iv), or the two agents combined. Treatment was only for 2 d, based on the rationale that as the in vivo effects of vancomycin are traditionally slow in onset, maximal disclosure of any synergistic effect of the two compounds may emerge at this early time point.

strain RN6390 = experiment: Rabbit model of IE, aspirin alone 4 to 12 mg/kg/d for 4 d; type: in vivo
Procedure: To begin to assess the in vitro data sets for in vivo relevance, the rabbit model of IE as described by […] et al. Handbook of Animal Models of Infection. Academic Press, New York, N.Y., was utilized. Animals with pre-established IE caused by strain RN6390 were administered a wide range of iv aspirin dose regimens (4 to 12 mg/kg/d for 4 d therapy). This range affords human-equivalent sera levels in rabbits as described in Kupferwasser et al. Circulation. 1999 99:2791-7.

[13] = test system: three distinct S. aureus strains; experiment: NSAID effect on phenotypic or genotypic characteristics of S. aureus in vitro; type: cell-based, Staphylococcus aureus
Text: These findings also substantiate the concept that the anti-infective properties of aspirin likely occur by both platelet-dependent (aspirin) and platelet independent (SAL) mechanisms. Thus, the discovery of adjunctive use of SALs for MRSA infections are particularly relevant given: 1) long-term and extensive experience of aspirin for a variety of clinical indications; 2) its well-defined pharmacokinetics; and 3) its excellent adverse event and safety profiles.

[14] = Plasma prostacyclin levels after aspirin dosing

Compound: O=C(O)Cc1ccccc1Nc1c(Cl)cccc1Cl [DICL, diclofenac]
- agr expression (S. aureus [1]): reduced

Compound: O=C(O)c1cc(-c2ccc(F)cc2F)ccc1O [DIF, 5-(2,4-difluorophenyl)-2-hydroxy-benzoic acid]
- regulatory and VF gene expression in MSSA and MRSA [2]: significantly modulate
- effectiveness relative to SAL in suppressing virulence factor regulation or expression in MRSA ([2]; in vitro, MRSA including USA300): approximately 10 fold
- reduction of RNAIII (agr), hla, sspA compared with SAL ([2]; log phase): ten-fold higher reduction
- Hemolysis phenotypes [3]: suppressed
- suppression of agr RNAIII, hla, and vraR (SH1000 (MSSA)): > 20 fold
- expression of agr RNAIII, hla, mprF, and sspA (USA300 (MRSA)): suppressed
- increases in ciprofloxacin MIC [4]: prevented increases

Compound: O=C(O)c1cc(O)ccc1O [GTA, gentisic acid]
- gene expression ([2]; 25 μg/ml): did not alter

Compound: O=C(O)c1ccccc1O [SAL, salicylic acid]
- regulatory and VF gene expression in MSSA and MRSA [2]: significantly modulate
- modulation of gene expression or hemolysis ([2]; 25 μg/ml): limited modulation
- growth inhibition (in vitro MIC testing) [5]: no substantial growth inhibition
- fibrinogen and fibronectin binding [6]: significant reductions
- binding to fibrin and platelet-fibrin matrices (S. aureus [7]): Significant reductions
- Hla protein production (S. aureus α-toxin): dose dependent reduction
- thrombolysis and hemolysis by supernates (S. aureus α-toxin): reduced
- α-toxin elaboration (S. aureus α-toxin): reduced
- protease activity in supernatants (S. aureus [8]): increased up to five-fold
- hla expression (S. aureus [1]): significantly reduced
- protein A gene expression (spa) (S. aureus [1]): increased
- sarA (P1) expression (S. aureus [1]): down-regulating
- sarC (P3) expression (S. aureus [1]): up-regulating
- agr expression (S. aureus [1]): reduced
- sigB expression (as measured by increases in asp23 expression) [9]: induces
- in vivo efficacy compared with aspirin ([10]; same in vivo efficacy study carried out with SAL): equivalent results to aspirin alone
- intrinsic bacteriostatic or bactericidal effects [11]: no evident intrinsic bacteriostatic or bactericidal effects
- Lipase activity increase (S. aureus [12]): ~2.6 fold
- protein A expression increase (S. aureus [12]): ~20%

Compound: CC(=O)Oc1ccccc1C(=O)O [aspirin, acetylsalicylic acid]
- modulation of gene expression or hemolysis ([2]; 25 μg/ml): limited modulation
- bacterial counts in vegetations and kidneys (S. aureus IE; aspirin 8 mg/kg/d iv): significantly reduces
- growth inhibition (in vitro MIC testing) [5]: no substantial growth inhibition
- beneficial effects of 8 mg/kg/d versus lower (4 mg/kg/d) or higher (12 mg/kg/d) dose regimens (strain RN6390; 8 mg/kg/d): significantly exceeded
- beneficial effects at increased dose (strain RN6390; aspirin 12 mg/kg/d): paradoxical loss
- vegetation weight, and vegetation and kidney bacterial densities (strain RN6390; iv aspirin 4 to 12 mg/kg/d for 4 d): consistent and dose-dependent reduction
- mass of echocardiographic detectable cardiac valve vegetations (strain RN6390; rabbit, in vivo): dramatic reductions
- changes in phenotypic or genotypic characteristics [13]: neither aspirin (parent compound of SAL) nor indomethacin caused detectable changes
- effects of aspirin treatment across strains ([10]; RN6390 and rsbU-repaired variant SH1000): Equivalent salutary effects
- impact of aspirin ([10]; strains deleted of their entire sigB operon): dampened
- prostacyclin generation ([14]; 12 mg/kg aspirin dosing): prolonged suppression
- prolonged suppression of prostacyclin generation ([14]; 4 or 8 mg/kg aspirin): neither at 4 or 8 mg/kg

Compound: COc1ccc2c(c1)c(CC(=O)O)c(C)n2C(=O)c1ccc(Cl)cc1 [indomethacin]
- changes in phenotypic or genotypic characteristics [13]: neither aspirin (parent compound of SAL) nor indomethacin caused detectable changes

Compound: CN[C@H](CC(C)C)C(=O)N[C@H]1C(=O)N[C@@H](CC(N)=O)C(=O)N[C@H]2C(=O)N[C@H]3C(=O)N[C@H](C(=O)N[C@H](C(=O)O)c4cc(O)cc(O)c4-c4cc3ccc4O)[C@H](O)c3ccc(c(Cl)c3)Oc3cc2cc(c3O[C@@H]2O[C@H](CO)[C@@H](O)[C@H](O)[C@H]2O[C@H]2C[C@](C)(N)[C@H](O)[C@H](C)O2)Oc2ccc(cc2Cl)[C@H]1O [vancomycin]
- bacterial counts in vegetations and kidneys (S. aureus IE; vancomycin 7.5 mg/kg bid iv): significantly reduces

Reference: US9585897B2, “Anti-infective hydroxy-phenyl-benzoates and methods of use” (priority 2008, dated 2017)
